Consider 5 compounds from article PMC9147024 (2022).

Holding throughout (test): SPR
Background: Surface plasmon resonance follows binding to a sensor surface in real time, without labels.

Assay [1] has as its system ATATAT (DNA, hairpin) CCATATATGCTCTCATATATGG
As to conditions: Na+ 100 mM, 50 mM Tris-HCl, 1 mM EDTA, pH 7.4, 25 °C.

In assay [2] the test system is AAAGAAA (DNA, hairpin) CCAAAGAAAGCTCTCTTTCTTTGG
The note with it: Na+ 100 mM, 50 mM Tris-HCl, 1 mM EDTA, pH 7.4, 25 °C.

Assay [3] has as its system AAAAAA (DNA, hairpin) CCAAAAAAGCTCTCTTTTTTGG
The note with it: Na+ 100 mM, 50 mM Tris-HCl, 1 mM EDTA, pH 7.4, 25 °C.

For assay [4], the system named is AAAGTTT (DNA, hairpin) CCAAAGTTTGCTCTCAAACTTTGG
The note with it: Na+ 100 mM, 50 mM Tris-HCl, 1 mM EDTA, pH 7.4, 25 °C.

For assay [5], the system named is AATAAT (DNA, hairpin) CCAATAATGCTCTCATTATTGG
As to conditions: Na+ 100 mM, 50 mM Tris-HCl, 1 mM EDTA, pH 7.4, 25 °C.

The subject of assay [6] is AAATTT (DNA, hairpin) CCAAATTTGCTCTCAAATTTGG
The note with it: Na+ 100 mM, 50 mM Tris-HCl, 1 mM EDTA, pH 7.4, 25 °C.

For assay [7], the system named is AATGAAT (DNA, hairpin) CCAATGAATGCTCTCATTCATTGG
As to conditions: Na+ 100 mM; 50 mM Tris-HCl, 1 mM EDTA, pH 7.4, 25 °C.

In assay [8] the test system is AATGCAAT (DNA, hairpin) CCAATGCAATGCTCTCATTGCATTGG
As to conditions: Na+ 100 mM; 50 mM Tris-HCl, 1 mM EDTA, pH 7.4, 25 °C.

The subject of assay [9] is AAAGCTTT (DNA, hairpin) CCAAAGCTTTGCTCTCAAAGCTTTGG
The note with it: Na+ 100 mM; 50 mM Tris-HCl, 1 mM EDTA, pH 7.4, 25 °C.

Assay [10] has as its system AAAGCAAA (DNA, hairpin) CCAAAGCAAAGCTCTCTTTGCTTTGG
The note with it: Na+ 100 mM, 50 mM Tris-HCl, 1 mM EDTA, pH 7.4, 25 °C.

Assay [11] deals with ATAGTAT (DNA, hairpin) CCATAGTATGCTCTCATACTATGG
As to conditions: Na+ 100 mM; 50 mM Tris-HCl, 1 mM EDTA, pH 7.4, 25 °C.

Assay [12] has as its system ATAGCTAT (DNA, hairpin) CCATAGCTATGCTCTCATAGCTATGG
As to conditions: Na+ 100 mM; 50 mM Tris-HCl, 1 mM EDTA, pH 7.4, 25 °C.

The KD is the equilibrium constant for the complex coming apart. Regarding `N=C(N)c1ccc(OCc2cccc(COc3ccc(C(=N)N)cc3)c2)cc1`, the KD is 344 nM in [1]; 261 nM in assay [3]; 900 nM in [4]; 117 nM in assay [5] (Figure S2 prints 344 nM); 84 nM in [6]. Further, the binding entry in assay [2] (NB [sic]) is given as “no”.
Turning to `N=C(N)c1ccc(OCc2cccc(COc3ccc(C(=N)N)cc3)n2)cc1`, the KD came out at 24 nM in assay [7]; 1176 nM in assay [8]; 19 nM in assay [2]; 58 nM in assay [9]; 1.4 nM in assay [4] (text b19 gives 1.8 nM); 68 nM in assay [11]. In addition, the KD in assay [6] is listed as 374 nM; in assay [12] it was 719 nM. The binding entry in assay [1] (NB [sic]), in [3] (NB [sic]), in [10] (NB [sic]) and in [5] (NB [sic]) was “no” throughout.
Take `N=C(N)c1ccc(OCc2cccc(COc3ccc(C(N)=O)cc3)n2)cc1`: the KD was 689 nM in [7], 1025 nM in assay [9] and 52 nM in assay [4].
As to `c1cc(COc2ccc(C3=NCCCN3)cc2)nc(COc2ccc(C3=NCCCN3)cc2)c1`, the KD in assay [7] is recorded as 5.7 nM; in assay [1], 709 nM; in assay [8], 534 nM; in assay [2], 4.6 nM; in assay [3] it was 1111 nM; in assay [9], 27 nM. For the same compound, the KD amounted to 653 nM in assay [10]; 1 nM in [4]; 33.6 nM in [11]; 141 nM in assay [5]; 138 nM in assay [6]; 256 nM in [12].
For the compound `c1cc(COc2ccc(C3=NCCN3)cc2)nc(COc2ccc(C3=NCCN3)cc2)c1`, the dissociation constant (KD) worked out at 101 nM in assay [7]; 43 nM in assay [2]; 123 nM in assay [9]; 3.6 nM in assay [4]; 227 nM in assay [11]; 1000 nM in [12]. In [6] (NB [sic]), the binding result is listed as “no”.
